Where a SMILES comes first, the peptide text is derived from it. [ ]: non-standard residue; d: D form. ξ: configuration not given here. ξBip(2'-Et-4'-OMe) = CCc1cc(OC)ccc1-c1ccc(CC(N)C(=O)O)cc1; ξαMePhe(2,6-F2) = CC(N)(Cc1c(F)cccc1F)C(=O)O; ξαMe(hhPhe) = CC(N)(CCCc1ccccc1)C(=O)O; ξαMePhe(2-F) = CC(N)(Cc1ccccc1F)C(=O)O; hArg = N=C(N)NCCCC[C@H](N)C(=O)O; Cit = NC(=O)NCCC[C@H](N)C(=O)O; ξhhPhe = NC(CCCc1ccccc1)C(=O)O; ξαMeF = CC(N)(Cc1ccccc1)C(=O)O; NMeV = CN[C@H](C(=O)O)C(C)C; ξαMeNle = CCCCC(C)(N)C(=O)O; Nle = CCCC[C@H](N)C(=O)O; Orn = NCCC[C@H](N)C(=O)O; ξαMeP = CC1(C(=O)O)CCCN1; Ac5c = NC1(C(=O)O)CCCC1; Ac3c = NC1(C(=O)O)CC1; Aib = CC(C)(N)C(=O)O
Test system: ovariectomised (OVX) rats
Experiment: In vivo anti-osteoporosis activity testing in OVX rat model (serum calcium, phosphate, bone parameters)
Design: species or system Female Wistar Rats
Conditions: po
Text: c) In Vivo Anti-Osteoporosis Activity Testing in OVX Rat Model: The ovariectomised (OVX) rats were used to study anti-osteoporosis activity of test compounds (short-chain peptides) in vivo. The OVX rats develop osteopenia due to ovarian hormone deficiency. Osteopenia can be detected as early as 14 days post OVX, increase for the next 100 days and then stabilised (Wronski T. J., et al., Calcif. Tissue Int., 43(3), 1988, 179-183). Detailed Study Protocol to Evaluate the Effects of Anabolic Therapy on Bone Markers and Histomorphometry in OVX Animals: 10 to 11 weeks old Female Wistar Rats (150-200 g) were used. The animals were kept in individually ventilated cages in a room with controlled temperature (23°±3° C.), lighting (12:12 h light-dark cycle) and relative humidity (55±10%). Animals had free access to standard rat chow and water. Protocol for use of animals for conducting this study has been reviewed and approved by Institutional Animal Ethics Committee (IAEC). The animals were marked with picric acid for identification and acclimatized to experimental room conditions for 2 days prior to initiation of the study. For the induction of osteoporosis, rats were bilaterally ovariectomised under anesthesia. For Ovariectomy, Incision was made on dorsa-lateral side near lumbar region of animal. After that, ovary was excised and the veins were tied with ligature before removing ovary to prevent blood loss. Then incision was sutured back with ligature. After Bilateral ovariectomy, animals were allowed to rest for 4 weeks. They were then divided into different groups (n=9) based on their body weight. The groups consisted of a no treatment control, PTH as standard and one or two groups of test compounds (short-chain peptides). The treatment was given for the duration of 6 weeks. At the last day of treatment animals were kept overnight in metabolic cages under fasting for the collection of Urine. Next day, blood was collected after 24 hours of last dosing and animals were sacrificed. Changes in biochemical parameters and bone turnover parameters (Increase in serum Calcium and decrease in Phosphate levels, Acid Phosphatase and TRAP) were evaluated in the urine and serum. After sacrificing, intact femur and tibial bones are removed and cleaned from adherent tissues, muscles and tendons; weighed and collected in formal saline (10% formaldehyde solution). Lumbar vertebra (L5) was excised, carefully cleaned and collected in formal saline. Femur, tibia and Lumbar vertebra-5 (L5) were later processed for histomorphometric evaluation (Zhang L., et al., Tohoku J Exp Med., 1998, 186(2), 131-41; Tanizawa T., et al., Toxicol Lett., 1998, 102, 399-403).

**Q.** Which “% decrease in serum PO4 Levels (mg/dl) vs control” value (shortened to “% decrease in serum PO4 Levels”) (3 mg/kg) does the source give for `CCCC[C@H](NC(=O)C(C)(Cc1c(F)cccc1F)NC(=O)[C@H](CCC(N)=O)NC(=O)[C@@H](NC(=O)[C@H](CCC(=O)O)NC(=O)C(C)(C)NC(=O)[C@@H](NC(=O)C(C)(C)N)C(C)C)[C@@H](C)CC)C(=O)N[C@@H](Cc1c[nH]cn1)C(=O)N[C@@H](CCC(N)=O)C(=O)N[C@@H](CCCN)C(=O)N[C@@H](C)C(=O)NC(C)(Cc1c(F)cccc1F)C(=O)NC(C)(Cc1ccccc1F)C(N)=O` (stereo partly shown) [Seq. ID. 317] (H-[Aib]V[Aib]EIQ[ξαMePhe(2,6-F2)][Nle]HQ[Orn]A[ξαMePhe(2,6-F2)][ξαMePhe(2-F)]-NH2) here?
**A.** 93%

**Q.** What about the “% increase in serum Ca^2+ Levels (mg/dl) vs control” value (from here on “% increase in serum Ca^2+ Levels”) (3 mg/kg) of the same compound?
**A.** 102%

**Q.** Which results are given for `CCCC[C@H](NC(=O)[C@H](CC(C)C)NC(=O)[C@H](CCC(N)=O)NC(=O)[C@@H](NC(=O)[C@H](CCC(=O)O)NC(=O)C(C)(C)NC(=O)[C@@H](NC(=O)C(C)(C)NC(=O)[C@@H](N)C(C)C)C(C)C)[C@@H](C)CC)C(=O)N[C@@H](Cc1c[nH]cn1)C(=O)N[C@@H](CCC(N)=O)C(=O)N[C@@H](CCCCNC(=N)N)C(=O)N[C@@H](C)C(=O)N[C@@H](CCCCN)C(=O)NC(Cc1ccc(-c2ccc(OC)cc2CC)cc1)C(=O)NC(C)(CCCc1ccccc1)C(N)=O` (stereo partly shown) [Seq. ID. 893] (H-V[Aib]V[Aib]EIQL[Nle]HQ[hArg]AK[ξBip(2'-Et-4'-OMe)][ξαMe(hhPhe)]-NH2)?
**A.** % decrease in serum PO4 Levels (mg/dl) vs control (0.3 mg/kg): 89%; % increase in serum Ca^2+ Levels (mg/dl) vs control (0.3 mg/kg): 108%

**Q.** For `CCCCC(C)(NC(=O)[C@H](CC(C)C)NC(=O)[C@H](CCC(N)=O)NC(=O)[C@@H](NC(=O)[C@H](CCC(=O)O)NC(=O)C(C)(C)NC(=O)[C@@H](NC(=O)C1(NC(=O)[C@@H](NC)C(C)C)CCCC1)C(C)C)[C@@H](C)CC)C(=O)N[C@@H](Cc1c[nH]cn1)C(=O)N[C@@H](CCC(N)=O)C(=O)N[C@@H](CCCCNC(=N)N)C(=O)N[C@@H](C)C(=O)N[C@@H](CCCCNC(=N)N)C(=O)NC(C)(Cc1ccccc1F)C(=O)NC(C)(CCCc1ccccc1)C(N)=O` (stereo partly shown) [Seq. ID. 941] (H-[NMeV][Ac5c]V[Aib]EIQL[ξαMeNle]HQ[hArg]A[hArg][ξαMePhe(2-F)][ξαMe(hhPhe)]-NH2), which “% decrease in serum PO4 Levels” value (0.9 mg/kg) is on record?
**A.** 95%

**Q.** And the “% increase in serum Ca^2+ Levels” value (0.9 mg/kg)?
**A.** 99%

**Q.** With `CCCC[C@H](NC(=O)C(C)(Cc1c(F)cccc1F)NC(=O)[C@H](CCC(N)=O)NC(=O)[C@@H](NC(=O)[C@H](CCC(=O)O)NC(=O)C(C)(C)NC(=O)[C@@H](NC(=O)C1(N)CCCC1)C(C)C)[C@@H](C)CC)C(=O)N[C@@H](Cc1c[nH]cn1)C(=O)N[C@@H](CCC(N)=O)C(=O)N[C@@H](CCCNC(N)=O)C(=O)N[C@@H](C)C(=O)NC(C)(C)C(=O)NC(Cc1ccc(-c2ccc(OC)cc2CC)cc1)C(=O)NC(CCCc1ccccc1)C(N)=O` (stereo partly shown) [Seq. ID. 847] (H-[Ac5c]V[Aib]EIQ[ξαMePhe(2,6-F2)][Nle]HQ[Cit]A[Aib][ξBip(2'-Et-4'-OMe)][ξhhPhe]-NH2) as the compound, how does the “% decrease in serum PO4 Levels” value (0.5 mg/kg) read?
**A.** 79%

**Q.** What about the “% increase in serum Ca^2+ Levels” value (0.5 mg/kg) of the same compound?
**A.** 77%

**Q.** For `CC[C@H](C)[C@H](NC(=O)[C@H](CCC(=O)O)NC(=O)C(C)(C)NC(=O)[C@@H](NC(=O)C1(N)CC1)C(C)C)C(=O)N[C@@H](CCC(N)=O)C(=O)N[C@@H](CC(C)C)C(=O)N[C@@H](CCSC)C(=O)N[C@@H](Cc1c[nH]cn1)C(=O)N[C@@H](CCC(N)=O)C(=O)N[C@@H](CCCCNC(=N)N)C(=O)N1CCCC1(C)C(=O)N[C@@H](CCCCN)C(=O)NC(C)(Cc1ccccc1)C(N)=O` (stereo partly shown) [Seq. ID. 12] (H-[Ac3c]V[Aib]EIQLMHQ[hArg][ξαMeP]K[ξαMeF]-NH2), which “% decrease in serum PO4 Levels” value (5 mg/kg) is on record?
**A.** 102%

**Q.** What about the “% increase in serum Ca^2+ Levels” value (5 mg/kg) of the same compound?
**A.** 118%

— patent US8383581B2, “Short-chain peptides as parathyroid hormone (PTH) receptor agonist” (Cadila Healthcare Limited, priority 2009, dated 2013)
